A short description of the test: Inhibition of dUTPase in human HeLa S3 cells assessed as potentiation of 1 uM FdUrd-induced decrease in cell density incubated for 24 hrs by crystal violet assay.
In the case of `O=c1ccn(CCCc2cnnn2CC(c2ccccc2)c2ccccc2)c(=O)[nH]1`, the EC50 is 1100 nM.

As for `CC[C@@](O)(Cn1nncc1CCCCn1ccc(=O)[nH]c1=O)c1ccc(F)c(OCC2CC2)c1`, the EC50 was found to be 70 nM.

`CC[C@@H](Cn1nncc1CCCCn1ccc(=O)[nH]c1=O)c1cccc(OCC2CC2)c1`: the EC50 was 50 nM.

In the case of `O=c1ccn(CCCCc2cnnn2CCc2cccc(OCC3CC3)c2)c(=O)[nH]1`, the EC50 came out at 260 nM.

Values taken from BindingDB's records for doi:10.1021/jm3004174 (Taiho Pharmaceutical, 2012).
